Test results reported in patent US11179391B2, “Compound with kinase inhibitory activity and preparation method and use thereof” (priority 2017, dated 2021).
Structures can show the parent of a compound that is named as a salt. Where two headings read alike, the source gives them in different places.

Columns and labels:
Format in all cases: biochemical
[1] = target: CDK4/CycD3 (Homo sapiens, UniProt P11802); experiment: Determination of CDK activity (Caliper mobility shift, FAM-P8 peptide): CDK4; settings: read-out: CDK4 enzymatic inhibitory activity (IC50)
CDK4/CycD3, sequence (P11802 whole entry): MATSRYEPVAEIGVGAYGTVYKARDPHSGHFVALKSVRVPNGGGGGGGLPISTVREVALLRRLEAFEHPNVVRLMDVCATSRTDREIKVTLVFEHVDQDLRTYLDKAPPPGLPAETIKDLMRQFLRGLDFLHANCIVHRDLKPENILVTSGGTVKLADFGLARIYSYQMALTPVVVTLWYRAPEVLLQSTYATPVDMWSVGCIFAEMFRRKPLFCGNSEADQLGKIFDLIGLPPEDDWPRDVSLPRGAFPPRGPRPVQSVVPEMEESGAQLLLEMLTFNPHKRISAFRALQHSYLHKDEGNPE
CDK4/CycD3, sequence (P30281 whole entry partner): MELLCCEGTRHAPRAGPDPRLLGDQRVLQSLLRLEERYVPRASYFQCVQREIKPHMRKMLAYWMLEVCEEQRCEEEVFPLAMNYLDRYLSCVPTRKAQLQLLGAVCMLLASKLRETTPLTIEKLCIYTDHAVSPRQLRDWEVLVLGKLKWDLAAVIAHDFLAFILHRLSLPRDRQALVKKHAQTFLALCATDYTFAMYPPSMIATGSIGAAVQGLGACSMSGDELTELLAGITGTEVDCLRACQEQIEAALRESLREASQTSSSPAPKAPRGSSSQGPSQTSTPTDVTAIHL
Description: (§1) In vitro, CDK (CDK4, CDK6, CDK1, CDK2, CDK7, and CDK9) kinase activity was tested by the following method.
(§2) CDK and raw materials used here: CDK4/CycD3 (Carna, Cat. No 04-105, Lot. No 10CBS-0429 C, GST-CDK4(1-303end)/GST-CycD3(1-292end)); CDK6/cycD3 (Carna, Cat. No 04-107, Lot. No 09CBS-0622K, GST-CDK6(1-326(end))); CDK1/CyclinB (Millipore, Cat. 14-450k, Lot. No 25729U, His-CDK1+GST-cyclinB); CDK2/CycA2 (Carna, Cat. No 04-103, Lot. No 06CBS-3024, GST-CDK2 (1-298(end))); CDK7/CyclinH/MAT1 (Millipore, Cat. No 14-476M, Lot. No WAB0365-A, His-CDK7+GST-MAT1+cyclinH); CDK9/cyclinTl (Millipore, Cat. No 14-685K, Lot. No. 2476163-A, His-CDK9+cyclinTl); Peptide FAM-P8 (GL Biochem, Cat. No. 112396, Lot. No. P100804-XZ112396); ATP (Sigma, Cat. No. A7699-1G, CAS No. 987-65-5); DMSO (Sigma, Cat. No. D2650, Lot. No. 474382); EDTA (Sigma, Cat. No. E5134, CAS No. 60-00-4); 96-well plate (Corning, Cat. No. 3365, Lot. No. 22008026); 384-well plate (Corning, Cat. No. 3573, Lot. No. 12608008); Staurosporine (Sigma, Cat. No. S4400-1MG, Lot. No. 046K4080).
(§3) 1. Prepared 1× Kinase Buffer and Stop Buffer for the Test
2) 1× Kinase Base Buffer (CDK4).
(§4) 1) Diluted the compound to 50 times of the maximum concentration with 100% DMSO. For example, if the desired maximum inhibitory concentration is 10 μM, then a DMSO solution of 500 μM concentration is required.
(§5) 2) Transferred the compound to a 96-well plate and serially diluted the compound from a 100% DMSO solution at a ratio of 30 μm to 60 μm for a total of 10 concentrations gradients. 3) Transferred 100 μm of 100% DMSO to two empty wells as a no compound control and a no enzyme control.
(§6) 4) Prepared intermediate plate and transferred the compound of 10 μm concentration from the original plate to the intermediate plate, and then 90 μm of 1× kinase buffer was added and mixed by shaking for 10 min.
(§7) 4) Preparing intermediate plate and transferred the compound of […] concentration from the original plate to the intermediate plate, and then 90 μm of 1× kinase buffer was added and mixed by shaking for 10 min.
(§8) 1) Transferred 5 μm of each compound from the 96-well intermediate plate to a 384-well plate. For example, A1 of the 96-well plate was transferred to A1 and A2 of the 384-well plate. A2 of the 96-well plate was transferred to A3 and A4 of the 384-well plate, and so on.
(§9) 1) Prepared a 2.5× enzyme solution: added kinase into 1× kinase base buffer.
(§10) 2) Prepared a 2.5× peptide solution: added FAM-labeled peptide and ATP into the 1× kinase base buffer.
(§11) 3) Transferred the 2.5× enzyme solution to the assay plate: Assay plate already contained 5 μm of 10% DMSO and transferred 10 μm of 2.5× enzyme solution to each well.
(§12) 4) Incubated at room temperature for 10 min.
(§13) 5) Transferred the 2.5× peptide solution to the assay plate: added 10 μm of 2.5× peptide solution to each well of the 384-well assay plate.
(§14) 6) Kinase reaction and termination: incubated at 28° C. for a specified period and added 25 μm of stop buffer to stop the reaction.
(§15) 5. Caliper Reading: Collect Data on Caliper.
(§16) 1) Copied conversion data from Caliper program and Converted conversion values to inhibition values: Inhibition rate (%)=(1−OD value of the compound-OD value of the control well)/(OD value of the control empty-OD value of the control well)*100%.
(§17) 2) Fitted the data in XLFit excel add-in version 4.3.1 to give the corresponding IC50 values.

[2] = target: CDK6/cycD3 (Homo sapiens, UniProt Q00534); experiment: Determination of CDK activity (Caliper mobility shift, FAM-P8 peptide): CDK6; settings: read-out: CDK6 enzymatic inhibitory activity (IC50)
CDK6/cycD3, sequence (Q00534 whole entry): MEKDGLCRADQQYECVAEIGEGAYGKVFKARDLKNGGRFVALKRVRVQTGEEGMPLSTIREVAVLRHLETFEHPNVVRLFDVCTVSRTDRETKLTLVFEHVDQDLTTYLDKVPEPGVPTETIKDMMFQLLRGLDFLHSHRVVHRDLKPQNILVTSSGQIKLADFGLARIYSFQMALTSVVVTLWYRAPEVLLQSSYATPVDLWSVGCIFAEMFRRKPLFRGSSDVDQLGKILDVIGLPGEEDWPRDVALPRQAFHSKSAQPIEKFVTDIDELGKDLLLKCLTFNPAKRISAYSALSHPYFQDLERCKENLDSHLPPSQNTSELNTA
CDK6/cycD3, sequence (P30281 whole entry partner): as the sequence (P30281 whole entry partner) above
Description: as §1, §2, §3
(§18) 1) 1× Kinase Base Buffer (CDK1, 2, and 6).
as §4, §5, §6, §7, §8, §9, §10, §11, §12, §13, §14, §15, §16, §17

[3] = target: CDK1/CyclinB (Homo sapiens, UniProt P06493); experiment: Determination of CDK activity (Caliper mobility shift, FAM-P8 peptide): CDK1; settings: read-out: CDK1 enzymatic inhibitory activity (IC50)
CDK1/CyclinB, sequence (P06493 whole entry): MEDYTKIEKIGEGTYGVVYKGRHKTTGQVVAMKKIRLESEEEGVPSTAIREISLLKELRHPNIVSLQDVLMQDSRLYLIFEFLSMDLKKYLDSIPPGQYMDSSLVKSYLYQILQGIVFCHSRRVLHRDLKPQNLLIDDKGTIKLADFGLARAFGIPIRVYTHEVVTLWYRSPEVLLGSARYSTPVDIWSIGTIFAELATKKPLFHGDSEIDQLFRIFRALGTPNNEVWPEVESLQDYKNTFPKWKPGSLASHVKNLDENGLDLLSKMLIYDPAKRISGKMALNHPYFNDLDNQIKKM
CDK1/CyclinB, sequence (P14635 whole entry partner): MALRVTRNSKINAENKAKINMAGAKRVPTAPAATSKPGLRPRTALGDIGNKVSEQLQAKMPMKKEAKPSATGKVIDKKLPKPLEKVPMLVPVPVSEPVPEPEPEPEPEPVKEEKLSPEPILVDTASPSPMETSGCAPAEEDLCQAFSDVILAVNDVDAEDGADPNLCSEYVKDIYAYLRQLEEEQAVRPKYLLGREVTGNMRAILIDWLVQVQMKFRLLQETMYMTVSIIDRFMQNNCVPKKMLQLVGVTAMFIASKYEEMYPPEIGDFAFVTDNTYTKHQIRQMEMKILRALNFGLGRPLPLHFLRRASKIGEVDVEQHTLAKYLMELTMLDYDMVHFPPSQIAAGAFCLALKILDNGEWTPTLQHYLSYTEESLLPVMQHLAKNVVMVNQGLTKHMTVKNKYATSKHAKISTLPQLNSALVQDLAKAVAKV
Description: as §1, §3, §18, §4, §5
(§19) 1) Transferred 5 μm of each compound from the 96-well intermediate plate to a 384-well plate. […] A2 of the 96-well plate was transferred to A3 and A4 of the 384-well plate, and so on.
as §9, §10, §11, §12, §13, §14, §15, §16, §17

[4] = target: CDK2/CycA2 (Homo sapiens, UniProt P24941); experiment: Determination of CDK activity (Caliper mobility shift, FAM-P8 peptide): CDK2; settings: read-out: CDK2 enzymatic inhibitory activity (IC50)
Description: as §1, §3, §18, §4, §5, §19, §9, §10, §11, §12, §13, §14, §15, §16, §17

[5] = target: CDK7/CyclinH/MAT1 (Homo sapiens, UniProt P50613); experiment: Determination of CDK activity (Caliper mobility shift, FAM-P8 peptide): CDK7; settings: read-out: CDK7 enzymatic inhibitory activity (IC50)
CDK7/CyclinH/MAT1, sequence (P50613 whole entry): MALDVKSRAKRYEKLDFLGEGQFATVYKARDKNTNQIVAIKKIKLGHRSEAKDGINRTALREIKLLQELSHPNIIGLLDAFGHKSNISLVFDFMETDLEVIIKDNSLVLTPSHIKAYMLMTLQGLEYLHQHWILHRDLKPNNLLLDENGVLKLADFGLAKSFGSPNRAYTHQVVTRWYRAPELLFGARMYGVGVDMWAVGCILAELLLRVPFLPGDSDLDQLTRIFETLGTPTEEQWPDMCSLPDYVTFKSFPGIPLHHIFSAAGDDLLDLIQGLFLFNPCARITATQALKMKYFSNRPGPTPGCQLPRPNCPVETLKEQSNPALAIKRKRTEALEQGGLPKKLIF
CDK7/CyclinH/MAT1, sequence (P51946 whole entry partner): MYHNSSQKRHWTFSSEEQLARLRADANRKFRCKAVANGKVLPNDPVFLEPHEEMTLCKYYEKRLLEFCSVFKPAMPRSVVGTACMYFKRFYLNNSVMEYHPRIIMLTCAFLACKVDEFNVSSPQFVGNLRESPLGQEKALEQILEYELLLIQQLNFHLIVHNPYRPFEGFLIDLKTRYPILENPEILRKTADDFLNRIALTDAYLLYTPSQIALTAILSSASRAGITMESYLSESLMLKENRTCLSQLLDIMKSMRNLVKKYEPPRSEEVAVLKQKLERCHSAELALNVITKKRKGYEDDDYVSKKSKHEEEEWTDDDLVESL
CDK7/CyclinH/MAT1, sequence (P51948 whole entry partner): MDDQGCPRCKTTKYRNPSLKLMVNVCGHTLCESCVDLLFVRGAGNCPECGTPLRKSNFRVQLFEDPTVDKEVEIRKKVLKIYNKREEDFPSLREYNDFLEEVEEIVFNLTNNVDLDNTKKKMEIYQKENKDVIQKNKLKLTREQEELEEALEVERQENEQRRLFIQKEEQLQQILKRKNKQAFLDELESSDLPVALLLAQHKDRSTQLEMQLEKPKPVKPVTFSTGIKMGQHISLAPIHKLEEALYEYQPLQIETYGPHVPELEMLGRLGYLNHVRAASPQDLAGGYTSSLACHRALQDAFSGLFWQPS
Description: as §1, §2, §3
(§20) 3) 1× Kinase Base Buffer (CDK7 and 9).
as §4, §5, §6, §7, §8, §9, §10, §11, §12, §13, §14, §15, §16, §17

[6] = target: CDK9/cyclinTl (Homo sapiens, UniProt P50750); experiment: Determination of CDK activity (Caliper mobility shift, FAM-P8 peptide): CDK9
CDK9/cyclinTl, sequence (P50750 whole entry): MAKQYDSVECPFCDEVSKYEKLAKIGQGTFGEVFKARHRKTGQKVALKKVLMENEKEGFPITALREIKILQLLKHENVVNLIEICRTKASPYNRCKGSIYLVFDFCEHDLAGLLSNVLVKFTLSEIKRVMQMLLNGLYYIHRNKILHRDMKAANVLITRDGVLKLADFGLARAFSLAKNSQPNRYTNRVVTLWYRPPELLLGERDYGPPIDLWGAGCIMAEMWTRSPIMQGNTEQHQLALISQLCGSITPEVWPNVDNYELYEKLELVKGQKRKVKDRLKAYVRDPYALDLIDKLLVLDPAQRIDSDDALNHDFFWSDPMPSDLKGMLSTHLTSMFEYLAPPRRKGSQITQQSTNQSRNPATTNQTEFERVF
CDK9/cyclinTl, sequence (O60563 whole entry partner): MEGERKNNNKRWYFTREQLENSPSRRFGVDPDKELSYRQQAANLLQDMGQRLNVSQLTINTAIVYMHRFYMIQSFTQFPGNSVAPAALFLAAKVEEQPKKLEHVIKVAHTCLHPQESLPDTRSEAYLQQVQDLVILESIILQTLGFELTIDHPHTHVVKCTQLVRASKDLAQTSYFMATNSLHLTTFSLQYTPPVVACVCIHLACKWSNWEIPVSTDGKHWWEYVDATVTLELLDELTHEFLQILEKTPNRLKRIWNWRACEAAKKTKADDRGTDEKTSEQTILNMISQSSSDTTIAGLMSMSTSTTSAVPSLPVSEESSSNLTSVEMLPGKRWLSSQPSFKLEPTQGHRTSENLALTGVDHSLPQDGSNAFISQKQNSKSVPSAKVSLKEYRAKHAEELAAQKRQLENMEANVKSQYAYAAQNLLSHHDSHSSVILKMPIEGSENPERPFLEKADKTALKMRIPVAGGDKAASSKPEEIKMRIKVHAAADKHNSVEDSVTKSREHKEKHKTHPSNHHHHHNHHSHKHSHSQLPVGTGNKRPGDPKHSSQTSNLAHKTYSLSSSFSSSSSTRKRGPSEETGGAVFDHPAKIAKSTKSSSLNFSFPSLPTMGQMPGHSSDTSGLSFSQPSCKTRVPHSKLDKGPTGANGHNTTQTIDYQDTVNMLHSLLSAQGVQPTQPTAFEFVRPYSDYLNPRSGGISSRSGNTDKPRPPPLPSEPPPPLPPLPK
Description: as §1, §3, §20, §4, §5, §19, §9, §10, §11, §12, §13, §14, §15, §16, §17

[7] = CDK9/cyclinTl, read-out: CDK9 enzymatic inhibitory activity (IC50)

Compound	IC50 ([1]; CDK4/CycD3)	IC50 ([2]; CDK6/cycD3)	IC50 ([3]; CDK1/CyclinB)	IC50 ([4]; CDK2/CycA2)	IC50 ([5]; CDK7/CyclinH/MAT1)	IC50 [6, 7]	IC50 [1]	IC50 [2]	IC50 [3]	IC50 [4]	IC50 [5]	IC50 ([6]; read-out: CDK9 enzymatic inhibitory activity (IC50))	IC50 ([6]; CDK9 enzymatic inhibitory activity (IC50), CDK9/cyclinTl)
CC[C@H](c1ccc(Nc2ncc(F)c(-c3cc(F)c4nc(C)n(C(C)C)c4c3)n2)nc1)N1CCN(C)CC1 [Example 7]	< 100 nM	1000 to 10000 nM	10000 to 100000 nM	10000 to 100000 nM	1000 to 10000 nM								10000 to 100000 nM
Cc1nc2c(F)cc(-c3nc(Nc4ccc(C=C5CCN(CC(F)(F)F)CC5)cn4)ncc3F)cc2n1C(C)C [Example 70]	< 100 nM	< 100 nM	100 to 500 nM	< 100 nM	1000 to 10000 nM	100 to 500 nM							
COCCN1CCC([C@H](C)c2ccc(Nc3ncc(F)c(-c4cc(F)c5nc(C)n(C(C)C)c5c4)n3)nc2)CC1 (single isomer, unassigned) [Example 80]	< 100 nM	100 to 500 nM	500 to 1000 nM	100 to 500 nM	1000 to 10000 nM	100 to 500 nM							
Cc1nc2c(F)cc(-c3nc(Nc4ccc(C(O)C5CCNCC5)cn4)ncc3F)cc2n1C(C)C (stereo not drawn) [Example 42, (6-((5-Fluoro-4-(4-fluoro-1-isopropyl-2-methyl-1H-benzo[d]imidazol-6-yl)pyrimidin-2-yl)amino)pyridin-3-yl)(piperidin-4-yl) methanol hydrochloride]							100 to 500 nM	100 to 500 nM	100 to 500 nM	< 100 nM	100 to 500 nM	100 to 500 nM	
Cc1nc2c(F)cc(-c3nc(Nc4ccc([C@@H](C)C5CCN(C)CC5)cn4)ncc3F)cc2n1C(C)C (single isomer, unassigned) [Example 22]	< 100 nM	100 to 500 nM	500 to 1000 nM	100 to 500 nM	1000 to 10000 nM	500 to 1000 nM							
CCC(c1ccc(Nc2ncc(F)c(-c3cc(F)c4nc(C)n(C(C)C)c4c3)n2)nc1)N1CCN(CC)CC1 (single isomer, unassigned) [Example 3, (R or S)—N-(5-(1-(4-ethylpiperazin-1-yl)propyl)pyridin-2-yl)-5-fluoro-4-(4-fluoro-1-isopropyl-2-methyl-1H-benzo[d]imidazol-6-yl) pyrimidin-2-amine]	< 100 nM	100 to 500 nM	10000 to 100000 nM	10000 to 100000 nM	1000 to 10000 nM	10000 to 100000 nM							
Cc1nc2c(F)cc(-c3nc(Nc4ccc([C@@H](C)C5CCN(CC(F)(F)F)CC5)cn4)ncc3F)cc2n1C(C)C [Example 86]	< 100 nM	100 to 500 nM	500 to 1000 nM	100 to 500 nM	1000 to 10000 nM	100 to 500 nM							
CCN1CCC([C@H](OC)c2ccc(Nc3ncc(F)c(-c4cc(F)c5nc(C)n(C(C)C)c5c4)n3)nc2)CC1 [Example 46]	< 100 nM	100 to 500 nM	100 to 500 nM	< 100 nM	1000 to 10000 nM	100 to 500 nM							
CC(=C1CCNCC1)c1ccc(Nc2ncc(F)c(-c3cc(F)c4nc(C)n(C(C)C)c4c3)n2)nc1 [Example 61]	< 100 nM	500 to 1000 nM	500 to 1000 nM	100 to 500 nM	1000 to 10000 nM	100 to 500 nM							

The next lines start with results.

IC50 ([1]; CDK4/CycD3)	IC50 ([2]; CDK6/cycD3)	IC50 ([3]; CDK1/CyclinB)	IC50 ([4]; CDK2/CycA2)	IC50 ([5]; CDK7/CyclinH/MAT1)	IC50 [6, 7]	IC50 [1]	IC50 [2]	IC50 [3]	IC50 [4]	IC50 [5]	IC50 ([6]; read-out: CDK9 enzymatic inhibitory activity (IC50))	Compound	IC50 ([6]; CDK9 enzymatic inhibitory activity (IC50), CDK9/cyclinTl)
< 100 nM	100 to 500 nM	500 to 1000 nM	100 to 500 nM	1000 to 10000 nM	100 to 500 nM							Cc1nc2c(F)cc(-c3nc(Nc4ccc([C@@H](C)C5CCN(C(C)C)CC5)cn4)ncc3F)cc2n1C(C)C (single isomer, unassigned) [Example 74]	
< 100 nM	100 to 500 nM	10000 to 100000 nM	1000 to 10000 nM	1000 to 10000 nM	1000 to 10000 nM							CCC(c1ccc(Nc2ncc(F)c(-c3cc(F)c4nc(C)n(C(C)C)c4c3)n2)nc1)N1CCN(CC)CC1 (single isomer, unassigned) [Example 2, (R or S)—N-(5-(1-(4-ethylpiperazin-1-yl)propyl)pyridin-2-yl)-5-fluoro-4-(4-fluoro-1-isopropyl-2-methyl-1H-benzo[d]imidazol-6-yl) pyrimidin-2-amine]	
< 100 nM	100 to 500 nM	100 to 500 nM	< 100 nM	1000 to 10000 nM	< 100 nM							C=C(c1ccc(Nc2ncc(F)c(-c3cc(F)c4nc(C)n(C(C)C)c4c3)n2)nc1)C1CCN(C)CC1 [Example 35]	
< 100 nM	< 100 nM	100 to 500 nM	< 100 nM	1000 to 10000 nM	100 to 500 nM							Cc1nc2c(F)cc(-c3nc(Nc4ccc([C@H](C)C5CCN(C)CC5)cn4)ncc3F)cc2n1C(C)C (single isomer, unassigned) [Example 21]	
< 100 nM	< 100 nM	100 to 500 nM	< 100 nM	1000 to 10000 nM	500 to 1000 nM							Cc1nc2c(F)cc(-c3nc(Nc4ccc([C@H](C)C5CCN(C(C)C)CC5)cn4)ncc3F)cc2n1C(C)C (single isomer, unassigned) [Example 73]	
